Assay results taken from ChEMBL document CHEMBL5465560, “Selectivity Literature for EUbOPEN Chemogenomic Library” (2024).

Assays:
[1] = biological target: T1, Serine/threonine-protein kinase D2 (Homo sapiens) (UniProt Q9BZL6); test: Selectivity interaction (ProQinase) EUB0000171b PRKD2
T1 sequence (whole entry): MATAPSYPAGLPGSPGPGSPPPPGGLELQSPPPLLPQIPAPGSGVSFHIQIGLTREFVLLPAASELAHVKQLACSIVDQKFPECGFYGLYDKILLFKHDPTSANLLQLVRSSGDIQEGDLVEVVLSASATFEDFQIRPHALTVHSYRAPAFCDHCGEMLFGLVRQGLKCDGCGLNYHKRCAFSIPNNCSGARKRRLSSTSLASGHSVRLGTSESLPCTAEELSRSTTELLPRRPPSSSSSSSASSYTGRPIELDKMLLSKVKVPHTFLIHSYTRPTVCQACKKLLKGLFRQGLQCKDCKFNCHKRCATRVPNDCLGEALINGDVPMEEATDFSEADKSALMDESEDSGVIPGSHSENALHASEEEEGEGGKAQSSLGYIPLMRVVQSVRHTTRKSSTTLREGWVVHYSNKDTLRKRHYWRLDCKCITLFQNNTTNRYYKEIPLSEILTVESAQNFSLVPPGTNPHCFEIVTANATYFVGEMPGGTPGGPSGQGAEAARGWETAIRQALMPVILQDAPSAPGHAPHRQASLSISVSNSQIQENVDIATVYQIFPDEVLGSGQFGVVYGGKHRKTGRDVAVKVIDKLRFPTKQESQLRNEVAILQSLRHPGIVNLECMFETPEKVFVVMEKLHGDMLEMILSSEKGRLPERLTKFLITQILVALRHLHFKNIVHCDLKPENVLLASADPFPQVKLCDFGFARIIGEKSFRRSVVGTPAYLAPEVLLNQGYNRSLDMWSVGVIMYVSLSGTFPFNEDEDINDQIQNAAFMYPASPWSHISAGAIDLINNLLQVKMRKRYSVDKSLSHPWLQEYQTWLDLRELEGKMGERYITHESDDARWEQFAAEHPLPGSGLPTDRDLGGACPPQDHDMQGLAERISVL

[2] = biological target: T2, Tyrosine-protein kinase Tec (Homo sapiens) (UniProt P42680); details: at 10 µM
T2 sequence (whole entry): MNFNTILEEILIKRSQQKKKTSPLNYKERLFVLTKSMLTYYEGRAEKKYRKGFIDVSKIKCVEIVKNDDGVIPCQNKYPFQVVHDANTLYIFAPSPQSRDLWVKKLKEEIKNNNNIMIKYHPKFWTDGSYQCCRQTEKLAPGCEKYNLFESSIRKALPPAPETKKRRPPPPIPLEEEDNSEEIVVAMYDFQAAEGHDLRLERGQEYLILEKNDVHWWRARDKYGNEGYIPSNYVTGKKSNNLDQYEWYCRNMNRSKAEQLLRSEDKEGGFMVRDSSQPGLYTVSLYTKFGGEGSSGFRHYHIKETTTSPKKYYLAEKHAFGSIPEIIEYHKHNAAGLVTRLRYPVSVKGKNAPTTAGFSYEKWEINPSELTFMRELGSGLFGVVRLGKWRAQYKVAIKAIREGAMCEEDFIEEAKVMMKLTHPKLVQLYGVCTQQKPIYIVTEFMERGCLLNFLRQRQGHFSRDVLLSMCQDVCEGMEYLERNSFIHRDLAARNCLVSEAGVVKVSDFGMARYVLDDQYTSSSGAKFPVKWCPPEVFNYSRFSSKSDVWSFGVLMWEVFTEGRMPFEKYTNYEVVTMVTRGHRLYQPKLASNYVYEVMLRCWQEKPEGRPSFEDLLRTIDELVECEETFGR

[3] = biological target: Serine/threonine-protein kinase WNK1 (Homo sapiens) (UniProt Q9H4A3); test: Selectivity interaction (Kinase panel (DSF assay)) EUB0001558a WNK1
[4] = biological target: ALK tyrosine kinase receptor (Homo sapiens, UniProt Q9UM73); test: Selectivity interaction (KinomeScan (DiscoverX)) EUB0000045b ALK
[5] = biological target: Tyrosine-protein kinase HCK (Homo sapiens) (UniProt P08631); test: Selectivity interaction (KinomeScan (DiscoverX)) EUB0000229b HCK; details: at 10 µM
[6] = biological target: T3, Tyrosine-protein kinase JAK3 (Homo sapiens) (UniProt P52333); details: at 10 µM
T3 sequence (whole entry): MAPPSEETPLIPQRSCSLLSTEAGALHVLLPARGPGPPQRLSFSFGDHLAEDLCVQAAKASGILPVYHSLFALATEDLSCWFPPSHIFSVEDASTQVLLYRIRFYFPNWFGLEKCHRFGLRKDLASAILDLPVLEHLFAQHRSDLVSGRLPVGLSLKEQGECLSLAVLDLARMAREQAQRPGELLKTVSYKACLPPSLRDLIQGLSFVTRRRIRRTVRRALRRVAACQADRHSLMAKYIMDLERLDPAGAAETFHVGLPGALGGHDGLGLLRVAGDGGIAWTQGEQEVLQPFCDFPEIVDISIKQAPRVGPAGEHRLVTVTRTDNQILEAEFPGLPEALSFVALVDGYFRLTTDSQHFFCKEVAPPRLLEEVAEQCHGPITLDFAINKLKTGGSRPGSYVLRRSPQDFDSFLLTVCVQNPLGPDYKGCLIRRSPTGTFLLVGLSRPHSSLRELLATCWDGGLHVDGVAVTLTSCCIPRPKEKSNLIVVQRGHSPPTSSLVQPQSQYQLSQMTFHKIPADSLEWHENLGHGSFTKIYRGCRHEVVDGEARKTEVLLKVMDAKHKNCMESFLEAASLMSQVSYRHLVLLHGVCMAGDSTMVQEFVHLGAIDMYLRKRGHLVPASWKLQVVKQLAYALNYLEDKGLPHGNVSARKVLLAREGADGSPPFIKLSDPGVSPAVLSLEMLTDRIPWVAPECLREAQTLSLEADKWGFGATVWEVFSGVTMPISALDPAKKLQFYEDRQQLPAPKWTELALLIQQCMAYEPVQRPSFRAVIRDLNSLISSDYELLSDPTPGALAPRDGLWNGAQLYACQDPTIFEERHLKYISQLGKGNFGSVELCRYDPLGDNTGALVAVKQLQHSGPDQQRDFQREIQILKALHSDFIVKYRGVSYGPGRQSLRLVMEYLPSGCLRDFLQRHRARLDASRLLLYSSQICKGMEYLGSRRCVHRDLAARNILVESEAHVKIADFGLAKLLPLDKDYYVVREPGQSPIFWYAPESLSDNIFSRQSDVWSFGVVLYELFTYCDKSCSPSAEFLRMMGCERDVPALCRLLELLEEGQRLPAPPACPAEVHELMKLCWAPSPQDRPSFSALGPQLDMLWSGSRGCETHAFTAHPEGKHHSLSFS

[7] = biological target: Cyclin-dependent kinase 17 (Homo sapiens) (UniProt Q00537); test: Selectivity interaction (ActivX KiNativ screen (ex vivo kinase selectivity in human PBMCs)) EUB0001619a CDK17; assay type: cell-based; details: PBMC, at 1 µM
[8] = biological target: Ribosomal protein S6 kinase beta-1 (Homo sapiens, UniProt P23443); test: Selectivity interaction (KinomeScan (DiscoverX)) EUB0001619a RPS6KB1; details: at 1 µM
Ribosomal protein S6 kinase beta-1, sequence (P23443 whole entry, looked up): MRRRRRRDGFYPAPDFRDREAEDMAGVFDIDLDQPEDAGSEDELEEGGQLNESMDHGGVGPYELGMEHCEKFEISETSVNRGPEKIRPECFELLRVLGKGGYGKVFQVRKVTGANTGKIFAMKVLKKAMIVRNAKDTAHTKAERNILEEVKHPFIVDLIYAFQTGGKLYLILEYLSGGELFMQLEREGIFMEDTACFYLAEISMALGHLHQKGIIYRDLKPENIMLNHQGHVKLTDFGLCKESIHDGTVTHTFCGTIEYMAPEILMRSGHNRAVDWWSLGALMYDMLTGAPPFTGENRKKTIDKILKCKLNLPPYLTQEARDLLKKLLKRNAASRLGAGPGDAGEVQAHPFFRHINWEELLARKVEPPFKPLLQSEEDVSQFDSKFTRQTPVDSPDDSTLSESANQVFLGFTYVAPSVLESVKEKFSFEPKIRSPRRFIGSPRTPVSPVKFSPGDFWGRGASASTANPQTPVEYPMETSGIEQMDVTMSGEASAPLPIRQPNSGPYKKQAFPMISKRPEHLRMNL

ALK tyrosine kinase receptor, sequence (Q9UM73 19-1620 limits assumed): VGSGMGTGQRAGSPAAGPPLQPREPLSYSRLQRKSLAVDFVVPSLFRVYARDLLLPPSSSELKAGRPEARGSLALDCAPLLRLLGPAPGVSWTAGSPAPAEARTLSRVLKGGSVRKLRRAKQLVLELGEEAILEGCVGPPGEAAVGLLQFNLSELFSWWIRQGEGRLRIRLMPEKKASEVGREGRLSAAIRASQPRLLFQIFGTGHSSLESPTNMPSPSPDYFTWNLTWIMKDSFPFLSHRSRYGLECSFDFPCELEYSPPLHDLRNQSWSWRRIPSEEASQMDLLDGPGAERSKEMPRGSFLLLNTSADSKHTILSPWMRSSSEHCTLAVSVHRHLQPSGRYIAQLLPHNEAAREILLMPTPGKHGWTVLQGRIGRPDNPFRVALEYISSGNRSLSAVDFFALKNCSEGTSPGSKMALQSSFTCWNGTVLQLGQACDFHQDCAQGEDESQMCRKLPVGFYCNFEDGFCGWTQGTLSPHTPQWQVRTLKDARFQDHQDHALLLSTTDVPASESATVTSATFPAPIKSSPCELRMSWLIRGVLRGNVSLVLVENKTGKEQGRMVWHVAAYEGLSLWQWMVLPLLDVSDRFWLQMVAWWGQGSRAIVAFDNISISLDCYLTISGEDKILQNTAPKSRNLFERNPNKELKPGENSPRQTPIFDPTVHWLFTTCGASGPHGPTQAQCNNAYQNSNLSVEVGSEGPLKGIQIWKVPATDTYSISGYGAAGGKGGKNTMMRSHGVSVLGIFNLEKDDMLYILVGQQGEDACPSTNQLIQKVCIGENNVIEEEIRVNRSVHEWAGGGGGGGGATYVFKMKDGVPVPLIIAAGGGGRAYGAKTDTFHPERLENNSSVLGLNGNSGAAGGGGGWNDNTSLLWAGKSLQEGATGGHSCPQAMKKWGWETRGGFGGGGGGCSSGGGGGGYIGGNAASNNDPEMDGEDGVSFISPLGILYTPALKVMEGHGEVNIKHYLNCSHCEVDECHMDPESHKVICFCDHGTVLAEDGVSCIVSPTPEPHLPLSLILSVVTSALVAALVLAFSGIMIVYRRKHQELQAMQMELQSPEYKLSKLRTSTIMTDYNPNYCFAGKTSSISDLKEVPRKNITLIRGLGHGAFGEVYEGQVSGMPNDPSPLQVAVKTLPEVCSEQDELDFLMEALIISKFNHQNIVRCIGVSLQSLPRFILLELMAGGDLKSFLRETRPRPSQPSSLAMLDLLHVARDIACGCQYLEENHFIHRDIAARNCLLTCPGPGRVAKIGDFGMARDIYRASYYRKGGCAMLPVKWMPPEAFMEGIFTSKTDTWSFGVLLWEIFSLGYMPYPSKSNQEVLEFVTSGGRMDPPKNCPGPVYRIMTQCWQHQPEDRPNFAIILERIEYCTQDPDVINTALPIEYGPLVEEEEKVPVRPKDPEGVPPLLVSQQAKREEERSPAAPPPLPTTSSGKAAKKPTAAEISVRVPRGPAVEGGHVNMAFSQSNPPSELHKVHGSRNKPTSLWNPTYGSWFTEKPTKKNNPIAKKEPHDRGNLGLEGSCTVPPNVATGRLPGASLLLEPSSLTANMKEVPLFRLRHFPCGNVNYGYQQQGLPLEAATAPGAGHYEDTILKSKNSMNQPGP
Serine/threonine-protein kinase WNK1 (Homo sapiens), sequence (Q9H4A3 whole entry, looked up): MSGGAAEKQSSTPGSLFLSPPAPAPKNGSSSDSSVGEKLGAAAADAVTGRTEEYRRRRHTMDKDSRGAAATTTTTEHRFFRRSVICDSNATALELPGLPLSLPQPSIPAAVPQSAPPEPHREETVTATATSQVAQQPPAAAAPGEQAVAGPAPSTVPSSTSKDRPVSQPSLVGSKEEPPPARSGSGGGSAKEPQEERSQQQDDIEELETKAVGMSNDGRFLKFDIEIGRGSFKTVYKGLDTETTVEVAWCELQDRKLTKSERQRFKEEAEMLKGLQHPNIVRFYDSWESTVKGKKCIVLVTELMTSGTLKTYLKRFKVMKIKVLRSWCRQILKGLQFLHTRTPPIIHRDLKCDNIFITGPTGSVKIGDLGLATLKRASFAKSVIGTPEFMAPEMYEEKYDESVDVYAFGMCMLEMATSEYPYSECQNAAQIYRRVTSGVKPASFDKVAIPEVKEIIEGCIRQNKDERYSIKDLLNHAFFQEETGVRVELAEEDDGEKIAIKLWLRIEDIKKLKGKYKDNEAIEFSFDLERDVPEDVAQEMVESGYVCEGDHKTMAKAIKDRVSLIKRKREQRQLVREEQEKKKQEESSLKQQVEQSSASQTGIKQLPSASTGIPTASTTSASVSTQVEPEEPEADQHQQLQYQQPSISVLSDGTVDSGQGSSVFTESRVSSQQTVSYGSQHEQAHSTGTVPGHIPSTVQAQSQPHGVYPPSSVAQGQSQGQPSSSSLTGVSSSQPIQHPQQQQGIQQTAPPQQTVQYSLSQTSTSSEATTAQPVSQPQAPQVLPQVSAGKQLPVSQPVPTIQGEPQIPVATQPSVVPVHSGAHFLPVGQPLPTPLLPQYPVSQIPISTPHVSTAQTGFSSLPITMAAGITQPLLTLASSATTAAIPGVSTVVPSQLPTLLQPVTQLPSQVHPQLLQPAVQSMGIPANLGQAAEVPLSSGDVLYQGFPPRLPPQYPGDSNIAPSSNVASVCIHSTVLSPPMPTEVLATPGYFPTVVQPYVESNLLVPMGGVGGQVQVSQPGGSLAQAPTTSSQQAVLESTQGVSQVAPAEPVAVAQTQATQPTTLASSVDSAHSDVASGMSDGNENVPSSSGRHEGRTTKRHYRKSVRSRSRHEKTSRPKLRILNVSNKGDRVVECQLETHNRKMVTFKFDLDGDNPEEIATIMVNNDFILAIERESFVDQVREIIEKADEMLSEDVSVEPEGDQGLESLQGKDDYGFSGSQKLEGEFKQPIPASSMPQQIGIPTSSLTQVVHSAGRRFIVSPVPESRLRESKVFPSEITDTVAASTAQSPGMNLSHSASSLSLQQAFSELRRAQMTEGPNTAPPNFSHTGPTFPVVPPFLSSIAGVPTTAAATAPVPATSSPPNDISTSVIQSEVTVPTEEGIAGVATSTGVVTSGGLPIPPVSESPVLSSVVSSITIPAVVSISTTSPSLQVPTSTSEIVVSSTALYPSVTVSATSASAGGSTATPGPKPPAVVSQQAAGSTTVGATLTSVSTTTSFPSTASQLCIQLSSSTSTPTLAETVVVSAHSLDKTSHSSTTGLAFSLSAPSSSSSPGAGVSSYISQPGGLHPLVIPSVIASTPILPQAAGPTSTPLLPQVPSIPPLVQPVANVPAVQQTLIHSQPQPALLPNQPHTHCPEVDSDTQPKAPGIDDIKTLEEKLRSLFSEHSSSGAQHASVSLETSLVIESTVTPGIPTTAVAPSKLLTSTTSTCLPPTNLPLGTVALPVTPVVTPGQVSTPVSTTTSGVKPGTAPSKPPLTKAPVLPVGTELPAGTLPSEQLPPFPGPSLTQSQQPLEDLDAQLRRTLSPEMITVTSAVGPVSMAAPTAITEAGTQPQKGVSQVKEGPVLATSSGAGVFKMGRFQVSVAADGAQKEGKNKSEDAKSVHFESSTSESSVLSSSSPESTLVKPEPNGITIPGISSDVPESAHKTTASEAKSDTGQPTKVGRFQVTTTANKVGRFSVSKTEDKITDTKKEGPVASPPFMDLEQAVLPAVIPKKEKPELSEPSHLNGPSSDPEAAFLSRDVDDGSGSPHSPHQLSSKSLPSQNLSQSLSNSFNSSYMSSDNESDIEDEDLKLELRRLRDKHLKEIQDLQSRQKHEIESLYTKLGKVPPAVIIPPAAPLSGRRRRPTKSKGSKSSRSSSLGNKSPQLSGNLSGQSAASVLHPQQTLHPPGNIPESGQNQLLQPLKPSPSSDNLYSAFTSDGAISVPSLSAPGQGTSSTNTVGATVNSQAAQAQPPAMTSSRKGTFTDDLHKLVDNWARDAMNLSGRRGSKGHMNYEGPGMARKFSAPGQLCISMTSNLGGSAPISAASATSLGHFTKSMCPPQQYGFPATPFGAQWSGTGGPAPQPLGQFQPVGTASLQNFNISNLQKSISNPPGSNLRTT
Tyrosine-protein kinase HCK (Homo sapiens), sequence (P08631 2-526 limits assumed): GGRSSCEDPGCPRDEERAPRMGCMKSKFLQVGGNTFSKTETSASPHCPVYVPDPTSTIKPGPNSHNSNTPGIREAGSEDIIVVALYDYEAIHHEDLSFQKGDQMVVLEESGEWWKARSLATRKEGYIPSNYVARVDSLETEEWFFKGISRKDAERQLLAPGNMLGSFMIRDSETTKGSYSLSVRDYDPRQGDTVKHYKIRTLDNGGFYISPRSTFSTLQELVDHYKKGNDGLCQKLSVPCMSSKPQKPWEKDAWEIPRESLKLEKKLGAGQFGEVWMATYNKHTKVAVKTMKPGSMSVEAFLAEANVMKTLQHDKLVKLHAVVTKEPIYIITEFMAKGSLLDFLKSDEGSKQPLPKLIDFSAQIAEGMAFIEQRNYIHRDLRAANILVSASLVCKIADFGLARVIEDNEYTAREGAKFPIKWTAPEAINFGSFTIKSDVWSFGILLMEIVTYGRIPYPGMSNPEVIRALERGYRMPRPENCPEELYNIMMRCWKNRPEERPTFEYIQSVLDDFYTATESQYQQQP

C=CC(=O)Nc1cccc(C(=O)Nc2ccc(Nc3cc(-c4[nH]c(SC)nc4C)ccn3)cc2)c1
% of control ([1]; at 1 µM): 69% | % of control ([1]; at 5 µM): 43%

COCC(=O)NC/C=C/c1ccc2ncnc(Nc3ccc(Oc4ccc(C)nc4)c(C)c3)c2c1 [CP-724714]
% of control [2]: 73%

CC(C)(O)[C@H](F)CN1Cc2cc(NC(=O)c3cnn4cccnc34)c(N3CCOCC3)cc2C1=O
dTM [3]: -0.2 K

C=CC(=O)Nc1cc(-n2c(=O)ccc3cnc4ccc(-c5ccc(NS(C)(=O)=O)cc5)cc4c32)ccc1C
% of control ([4]; at 1 µM): 100% | % of control ([4]; at 10 µM): 100%

COc1cc(N(C)c2ccnc3ccc(C(F)(F)F)cc23)cc(OC)c1OC
% binding [5]: 100%

Cc1cc([C@@H](C)Nc2ccccc2C(=O)O)c2nc(N3CCOCC3)cc(=O)n2c1 [AZD-6482]
% of control [6]: 94%

N#Cc1cccc(-c2c[nH]c3ncnc(N4CCOCC4)c23)c1
% of inhibition [7]: 25% | % of control [8]: 100%
